Experimental data reported in patent US12048689B2, “Pharmaceutical composition for preventing or treating inflammatory bowel disease acting as a functional antagonist for S1PR1 and S1PR4” (NEXTGEN BIOSCIENCE CO., LTD., priority 2022, dated 2024).
Several values for one entry are separate records, joined by “and”; a condition that tells them apart may be missing. Identical values can stand only once. Like-named read-outs stand apart in the source and are kept apart here.

Assays:
DSS-induced colitis mice = assay: Dextran sulfate sodium (DSS)-induced colitis model, disease activity index; format: in vivo
Description: The effect of NXC736 for inflammatory bowel disease was evaluated using a dextran sulfate sodium (DSS)-induced colitis model. In the mouse model, inflammatory bowel disease was induced by administering DSS to mice in drinking water at a concentration of 2.5%. Treatment groups consisted of a test group administered NXC736, a positive control administered ozanimod or methotrexate (MTX), a vehicle group and a normal control, and each group had n=10. In the model in which inflammatory bowel disease was induced, NXC736, which is the compound of the present invention, was orally administered at a dose of 5 and 10 mg/kg once a day for 7 days, ozanimod as a positive control material was orally administered at 5 mg/kg once a day, and methotrexate (MTX) as a positive control material was intraperitoneally administered at 3 mg/kg three times a week.
FIG. 3 illustrates the disease activity index (DAI) of DSS-induced colitis mice and the area under the disease activity index curve (AUC) of DSS-induced colitis mice. […] The calculation criteria for DAI are shown in the following Table 1, and the DAI was evaluated on days 0, 1, 2, 3, 4, 5, 6, 7, and 8.

[1] = tested on: T cells, CD4 T cells, and CD8 T cells; assay: Suppressive effect on mouse immune cells (FACS of peripheral blood and bone marrow after oral administration); format: in vivo; details: mice; for Cell number in bone marrow, percentage of control based on 0 time: listed as NXC7363, 3 mg/kg
Description: To confirm whether NXC736, which acts on the S1P receptor, also has an effect on lymphocyte reduction, the effect of NXC736 on immune cells was evaluated. After oral administration of NXC736 at 3 mg/kg/day to mice, changes in lymphocytes in the peripheral blood (PB) stream and bone marrow (BM) were classified for T cells, CD4T cells, and CD8T cells, and FACS analysis was performed at 0, 4, 8, 12, 24, and 36 hours after the administration of a test material. A cell number was measured and shown as a percentage (%) of a control based on 0 time.

[2] = Cardiovascular system in beagle dogs (telemetry heart rate, general symptoms); format: in vivo; details: oral 12.5, 25 and 50 mg/kg
Description: NXC736 was orally administered to four male beagle dogs under unanesthetized and unrestrained conditions with a remote transmitter inserted. Thereafter, the effect of NXC736 on the cardiovascular system was evaluated by measuring the heart rate for four beagle dogs, and it was confirmed with the naked eye whether abnormal symptoms appeared.
In this experiment, the experimental material was administered to each of the four beagle dogs over four steps. A 0.5% MC aqueous solution, which is an excipient, was administered as a control material in the first administration step (NXC7365 at 0 mg/kg), NXC736 at 12.5 mg/kg was administered in the second administration step, NXC736 at 25 mg/kg was administered in the third administration step, and NXC736 at 50 mg/kg was administered in the fourth administration step. The 1st to 4th administrations were performed at intervals of 1 week. In addition, at 0 hours before administration of the experimental material and at 0.5 hours, 1 hour, 2 hours, 3 hours, 4 hours, 6 hours, 8 hours, 12 hours and 24 hours after administration of the test material, the beagle dog's heart rate were measured.

[3] = target: hERG potassium ion channels (Homo sapiens, UniProt Q12809)
[4] = tested on: T cells, CD4 T cells, and CD8 T cells; assay: Suppressive effect on rat immune cells (FACS of peripheral blood and bone marrow after oral administration); format: in vivo; details: SD rats
Description: To evaluate the effect of NXC736 on rat immune cells, after oral administration of NXC736 at 10 mg/kg/day to SD rats, changes in lymphocytes in the peripheral blood (PB) stream and bone marrow (BM) were classified for T cells, CD4 T cells, and CD8 T cells, and FACS analysis was performed at 0, 4, 8, 12, 24, 36, and 48 hours after the administration of a test material. A cell number was measured and shown as a percentage (%) of a control based on 0 time, and the numbers of T cells, CD4 T cells, and CD8 T cells were measured and shown as a percentage (%) of a control based on 0 time.

[5] = oral 3 mg/kg, peripheral blood, 4 hours, 3 mg/kg

hERG potassium ion channels, sequence (Q12809 whole entry): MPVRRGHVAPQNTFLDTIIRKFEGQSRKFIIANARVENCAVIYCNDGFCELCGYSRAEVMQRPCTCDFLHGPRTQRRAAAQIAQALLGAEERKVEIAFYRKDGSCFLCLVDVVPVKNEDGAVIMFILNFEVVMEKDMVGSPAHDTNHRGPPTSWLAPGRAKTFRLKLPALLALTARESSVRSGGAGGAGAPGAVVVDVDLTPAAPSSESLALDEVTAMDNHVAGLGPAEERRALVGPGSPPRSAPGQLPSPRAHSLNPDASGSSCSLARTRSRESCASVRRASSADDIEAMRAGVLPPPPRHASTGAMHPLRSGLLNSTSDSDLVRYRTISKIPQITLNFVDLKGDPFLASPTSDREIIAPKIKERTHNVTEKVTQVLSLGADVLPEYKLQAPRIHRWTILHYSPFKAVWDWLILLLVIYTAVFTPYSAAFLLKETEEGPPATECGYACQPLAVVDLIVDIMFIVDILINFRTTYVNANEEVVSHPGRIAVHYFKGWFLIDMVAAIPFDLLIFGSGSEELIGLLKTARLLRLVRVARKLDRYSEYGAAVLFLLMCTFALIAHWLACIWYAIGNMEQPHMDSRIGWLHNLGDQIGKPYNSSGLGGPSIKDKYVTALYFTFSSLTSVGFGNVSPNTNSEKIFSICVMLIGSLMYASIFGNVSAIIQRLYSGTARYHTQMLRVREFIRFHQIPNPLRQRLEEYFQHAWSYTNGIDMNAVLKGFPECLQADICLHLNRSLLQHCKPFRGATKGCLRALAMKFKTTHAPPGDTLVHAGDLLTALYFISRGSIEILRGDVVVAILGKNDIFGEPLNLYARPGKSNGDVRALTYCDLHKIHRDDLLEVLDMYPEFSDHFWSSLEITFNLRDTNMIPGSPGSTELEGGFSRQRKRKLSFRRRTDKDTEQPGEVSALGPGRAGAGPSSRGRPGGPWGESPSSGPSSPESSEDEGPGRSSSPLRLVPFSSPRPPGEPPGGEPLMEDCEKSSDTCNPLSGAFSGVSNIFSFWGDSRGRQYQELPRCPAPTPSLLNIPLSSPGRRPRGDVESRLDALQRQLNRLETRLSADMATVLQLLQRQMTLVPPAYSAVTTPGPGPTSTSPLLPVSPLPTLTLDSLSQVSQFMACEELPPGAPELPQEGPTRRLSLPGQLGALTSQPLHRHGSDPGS

CN(Cc1cnc2nc(N)nc(N)c2n1)c1ccc(C(=O)N[C@@H](CCC(=O)O)C(=O)O)cc1 [MTX, methotrexate, reference compound]
Disease activity index (DAI) and AUC compared to negative control (vehicle) (DSS-induced colitis mice; MTX 3 mg/kg intraperitoneally three times a week): statistically significant reduction effect

CCCCCCCCCCn1cc(CCC(N)(CO)CO)nn1 [NXC736, 2-amino-2-(2-(1-decyl-1H-1,2,3-triazol-4-yl)ethyl)propane-1,3-diol]
Cell number in bone marrow, percentage of control based on 0 time ([1]; 3 mg/kg, 4 hours after administration): 135% and 120% | Cell number in bone marrow, percentage of control based on 0 time ([1]; 3 mg/kg, 24 hours after administration): 131% and 118% | Time until which the suppressive effect on T cell number was maintained to some extent ([1]; 3 mg/kg, reduced from 4 hours, then recovered): 24 h | Time until which the reduction of cell number in peripheral blood was maintained ([1]; oral 3 mg/kg, peripheral blood): 12 h | CD4 T cell number in peripheral blood, percentage of control based on 0 time [1, 5]: 16.4% and 17.6% | CD8 T cell number in peripheral blood, percentage of control based on 0 time [1, 5]: 5.9% and 9.3% | T cell number in peripheral blood, percentage of control based on 0 time [1, 5]: 40.6% and 41.6% | Cell number level recovered in peripheral blood, percentage of control ([1]; oral 3 mg/kg, peripheral blood, 36 hours): 88.9% | Clinical indicators (body weight loss, stool concentration, intestinal bleeding) compared to ozanimod (DSS-induced colitis mice; NXC736 5 mg/kg and 10 mg/kg vs ozanimod 5 mg/kg): equivalent values or more | Disease activity index (DAI) and AUC compared to negative control (vehicle) (DSS-induced colitis mice; NXC736 5 mg/kg orally once a day for 7 days): statistically significant reduction effect | Disease activity index (DAI) and AUC compared to negative control (vehicle) (DSS-induced colitis mice; NXC736 10 mg/kg orally once a day for 7 days): statistically significant reduction effect | General symptoms observed with the naked eye [2]: no abnormal symptoms | Change in heart rate ([2]; 0 to 24 hours): no change in heart rate | Hill coefficient [3]: 1.527 | Compensated suppression rate of hERG channel currents ([3]; 1 μM): 9.94±1.96% | Compensated suppression rate of hERG channel currents ([3]; 3 μM): 13.98±4.48% | Compensated suppression rate of hERG channel currents ([3]; 10 μM): 35.03±12.09% | Compensated suppression rate of hERG channel currents ([3]; 30 μM): 82.62±7.31% | Time until which the suppressive effect on T cells was maintained ([4]; oral 10 mg/kg, peripheral blood): 24 h | Change of cell number in bone marrow ([4]; oral, bone marrow): no change or a tendency to increase | Suppressive effect on number of T cells in peripheral blood ([4]; oral, peripheral blood, dose-dependent (doses of the three values not given)): 70% and 80% and 87%

CC(C)Oc1ccc(-c2nc(-c3cccc4c3CC[C@@H]4NCCO)no2)cc1C#N [ozanimod, reference compound]
Disease activity index (DAI) and AUC compared to negative control (vehicle) (DSS-induced colitis mice; ozanimod 5 mg/kg orally once a day): statistically significant reduction effect
